Key:
t-tau/p-tau181p = assay: CSF total tau / p-tau181P, Study ALZ1005; type: in vivo, human; conditions: for CSF P-tau percent change from baseline at day 28, Mean (SD) / CSF P-tau percent change from baseline at day 28, Median (range) / CSF total tau percent change from baseline at day 28, Mean (SD) / CSF total tau percent change from baseline at day 28, Median (range): Caucasian early AD
Method: In addition, exploratory measurements of plasma/CSF levels of APP fragments (sAPPα, sAPPβ, and total sAPP) and CSF levels of BACE1, t-tau, and p-tau were performed.
Baseline Aβ1–42, p-tau181P, and t-tau concentrations were measured using Innotest® Phospho-TAU181P, Innotest® hTAU Ag, and Innotest® β-AMYLOID1–42 (Innogenetics/Fujirebio, Ghent, Belgium) and the Luminex analytical platform (Luminex Corp., Austin, TX, USA). CSF samples from both the ALZ1005 (Caucasian) and ALZ1008 (Japanese) studies were analyzed in the same laboratory setting using the same assays and analytical platform. Diagnostic threshold CSF concentrations for AD vs. normal controls for Aβ1–42 were applied to the current sample set to judge the likelihood of having cerebral amyloid plaque deposition.
Treatment effect on plasma/CSF Aβ as compared with placebo was estimated by 95% CI for percent changes from baseline in each of the Aβ fragments (Aβ1–37, Aβ1–38, Aβ1–40, and Aβ1–42) in CSF and plasma. For primary and secondary biomarkers, day 28% changes from baseline, the least squares (LS) means (converted to original units), and treatment differences relative to placebo (with corresponding 95% CI) were analyzed on the basis of an analysis of covariance model that included treatment group and baseline score as a covariate. Day 28 changes from baseline in CSF tau/p-tau were summarized using descriptive statistics. Data were summarized and plotted by dose group, and exposure-response relationship was explored. […] Variability of predose baseline parameters vs. day 28 individual CSF ratios of Aβ1–42 to Aβ1–40 across treatment groups was explored graphically. Analyses were performed on individual populations of preclinical AD and MCI due to AD as well as the combined population of early AD.

[1] = human, in vivo, 4 weeks
Method: Safety and tolerability were assessed during the study by recording adverse events (AEs), clinically significant abnormalities, clinical laboratory tests, ECG, and vital signs and by performing physical, neurological, and MRI examinations. All enrolled participants were included in the safety analysis population.

[2] = cited from earlier work

Compound: C[C@@]1(c2cc(NC(=O)c3ccc(C#N)cn3)ccc2F)C=CSC(N)=N1 [atabecestat]
- changes in CSF t-tau or p-tau over 4-week treatment (t-tau/p-tau181p; 10-mg and 50-mg doses, Caucasian and Japanese): no relevant changes
- CSF P-tau percent change from baseline at day 28, Mean (SD) (t-tau/p-tau181p; 10 mg daily): 3.56 (4.797) %
- CSF P-tau percent change from baseline at day 28, Median (range) (t-tau/p-tau181p; 10 mg daily): 3.45 (− 4.6; 11.5) %
- CSF total tau percent change from baseline at day 28, Mean (SD) (t-tau/p-tau181p; 10 mg daily): 4.18 (7.629) %
- CSF total tau percent change from baseline at day 28, Median (range) (t-tau/p-tau181p; 10 mg daily): 6.76 (− 11.2; 16.1) %
- CSF P-tau percent change from baseline at day 28, Mean (SD) (t-tau/p-tau181p; 50 mg daily): 7.36 (3.648) %
- CSF P-tau percent change from baseline at day 28, Median (range) (t-tau/p-tau181p; 50 mg daily): 7.42 (1.6; 16.7) %
- CSF total tau percent change from baseline at day 28, Mean (SD) (t-tau/p-tau181p; 50 mg daily): 8.02 (6.557) %
- CSF total tau percent change from baseline at day 28, Median (range) (t-tau/p-tau181p; 50 mg daily): 7.64 (− 4.5; 23.4) %
- TEAE incidence (genital herpes) [1]: 5.6%
- plasma atabecestat free fraction [2]: 6%

Reference: paper PMC6106931 (Alzheimer's Research & Therapy, 2018)
